Experimental data: the supplement of paper PMC13207355
Structures can show the parent of a compound that is named as a salt.

Experiments:
Conditions in all cases: exposure time: 72 h
E57 [1] = patient-derived glioblastoma stem cells of mesenchymal subtype; assay: phenotypic distance (Euclidean, principal components) from DMSO controls (arbitrary units); higher = stronger morphological change
E21 [2] = patient-derived glioblastoma stem cells of mesenchymal subtype; assay: as above
E13 [3] = patient-derived glioblastoma stem cells of classical subtype; assay: as above
E31 [4] = patient-derived glioblastoma stem cells of proneural subtype; assay: as above
E28 [5] = patient-derived glioblastoma stem cells of classical subtype; assay: as above
E34 [6] = patient-derived glioblastoma stem cells of proneural subtype; assay: as above
FT3469 [7] = normal neural stem cell line; assay: as above
E57 [8] = assay: surviving fraction (nuclei count normalised to DMSO); higher = more cells surviving (less toxic)
E21 [9] = assay: as above
E13 [10] = assay: as above
E31 [11] = assay: as above
E28 [12] = assay: as above
E34 [13] = assay: as above
FT3469 [14] = assay: as above
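For phenotypic distance (Euclidean, principal components) from DMSO controls in this document: cell Painting imaging in 384-well plates, CellProfiler features reduced to at least 20 principal components, Euclidean distance versus same-plate DMSO vehicle wells (0.1% v/v), median over six images per well.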
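For surviving fraction (nuclei count normalised to DMSO) in this document: nuclei counted by high-content imaging of Hoechst-stained cells in laminin-coated 384-well plates, relative to 0.1% DMSO vehicle wells, with staurosporine as cell-death control.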

Cc1ncc(CO)c(CO)c1O [Pyridoxine hydrochloride]
Conditions | phenotypic distance | surviving fraction
E13 [3], 4.1 nM | 1.83 | –
E13 [3], 12.3 nM | 0.627 | –
E13 [3], 37 nM | 0.476 | –
E13 [3], 111.1 nM | 0.757 | –
E13 [3], 333.3 nM | 0.677 | –
E13 [3], 1000 nM | 0.715 | –
E13 [3], 3000 nM | 1.55 | –
E13 [10], 4.1 nM | – | 0.907
E13 [10], 12.3 nM | – | 0.973
E13 [10], 37 nM | – | 0.968
E13 [10], 111.1 nM | – | 1.04
E13 [10], 333.3 nM | – | 1.02
E13 [10], 1000 nM | – | 0.905
E13 [10], 3000 nM | – | 1.08
E21 [2], 4.1 nM | 0.627 | –
E21 [2], 12.3 nM | 0.496 | –
E21 [2], 37 nM | 0.428 | –
E21 [2], 111.1 nM | 0.899 | –
E21 [2], 333.3 nM | 0.724 | –
E21 [2], 1000 nM | 0.617 | –
E21 [2], 3000 nM | 0.536 | –
E21 [9], 4.1 nM | – | 0.9
E21 [9], 12.3 nM | – | 1.04
E21 [9], 37 nM | – | 1.02
E21 [9], 111.1 nM | – | 1.03
E21 [9], 333.3 nM | – | 0.92
E21 [9], 1000 nM | – | 1.06
E21 [9], 3000 nM | – | 1.03
E28 [5], 4.1 nM | 0.428 | –
E28 [5], 12.3 nM | 0.769 | –
E28 [5], 37 nM | 0.765 | –
E28 [5], 111.1 nM | 0.622 | –
E28 [5], 333.3 nM | 0.82 | –
E28 [5], 1000 nM | 1.01 | –
E28 [5], 3000 nM | 0.741 | –
E28 [12], 4.1 nM | – | 0.967
E28 [12], 12.3 nM | – | 1.04
E28 [12], 37 nM | – | 0.991
E28 [12], 111.1 nM | – | 0.922
E28 [12], 333.3 nM | – | 0.975
E28 [12], 1000 nM | – | 0.968
E28 [12], 3000 nM | – | 1.09
E31 [4], 4.1 nM | 1.57 | –
E31 [4], 12.3 nM | 0.82 | –
E31 [4], 37 nM | 0.958 | –
E31 [4], 111.1 nM | 1.06 | –
E31 [4], 333.3 nM | 0.654 | –
E31 [4], 1000 nM | 0.523 | –
E31 [4], 3000 nM | 0.738 | –
E31 [11], 4.1 nM | – | 0.944
E31 [11], 12.3 nM | – | 1.04
E31 [11], 37 nM | – | 1.03
E31 [11], 111.1 nM | – | 1.1
E31 [11], 333.3 nM | – | 1.03
E31 [11], 1000 nM | – | 1.01
E31 [11], 3000 nM | – | 0.903
E34 [6], 4.1 nM | 1.15 | –
E34 [6], 12.3 nM | 0.917 | –
E34 [6], 37 nM | 0.991 | –
E34 [6], 111.1 nM | 1.16 | –
E34 [6], 333.3 nM | 0.742 | –
E34 [6], 1000 nM | 0.612 | –
E34 [6], 3000 nM | 0.936 | –
E34 [13], 4.1 nM | – | 0.949
E34 [13], 12.3 nM | – | 0.918
E34 [13], 37 nM | – | 1.19
E34 [13], 111.1 nM | – | 1.07
E34 [13], 333.3 nM | – | 0.943
E34 [13], 1000 nM | – | 0.916
E34 [13], 3000 nM | – | 1.06
E57 [1], 4.1 nM | 1.25 | –
E57 [1], 12.3 nM | 1.12 | –
E57 [1], 37 nM | 0.554 | –
E57 [1], 111.1 nM | 0.42 | –
E57 [1], 333.3 nM | 0.699 | –
E57 [1], 1000 nM | 0.559 | –
E57 [1], 3000 nM | 0.776 | –
E57 [8], 4.1 nM | – | 1.03
E57 [8], 12.3 nM | – | 0.99
E57 [8], 37 nM | – | 1.01
E57 [8], 111.1 nM | – | 0.965
E57 [8], 333.3 nM | – | 1.07
E57 [8], 1000 nM | – | 0.984
E57 [8], 3000 nM | – | 0.981
FT3469 [7], 4.1 nM | 0.887 | –
FT3469 [7], 12.3 nM | 0.632 | –
FT3469 [7], 37 nM | 0.988 | –
FT3469 [7], 111.1 nM | 0.539 | –
FT3469 [7], 333.3 nM | 4.03 | –
FT3469 [7], 1000 nM | 0.686 | –
FT3469 [7], 3000 nM | 0.525 | –
FT3469 [14], 4.1 nM | – | 0.987
FT3469 [14], 12.3 nM | – | 0.951
FT3469 [14], 37 nM | – | 0.972
FT3469 [14], 111.1 nM | – | 0.985
FT3469 [14], 333.3 nM | – | 1.05
FT3469 [14], 1000 nM | – | 1.09
FT3469 [14], 3000 nM | – | 0.987

Cc1cccn2c(=O)c(-c3nnn[nH]3)cnc12 [Pemirolast potassium]
Conditions | phenotypic distance | surviving fraction
E13 [3], 4.1 nM | 0.849 | –
E13 [3], 12.3 nM | 0.649 | –
E13 [3], 37 nM | 2.3 | –
E13 [3], 111.1 nM | 0.669 | –
E13 [3], 333.3 nM | 3.24 | –
E13 [3], 1000 nM | 0.451 | –
E13 [3], 3000 nM | 0.784 | –
E13 [10], 4.1 nM | – | 0.925
E13 [10], 12.3 nM | – | 0.971
E13 [10], 37 nM | – | 1
E13 [10], 111.1 nM | – | 1.04
E13 [10], 333.3 nM | – | 0.947
E13 [10], 1000 nM | – | 0.974
E13 [10], 3000 nM | – | 1.18
E21 [2], 4.1 nM | 0.761 | –
E21 [2], 12.3 nM | 0.597 | –
E21 [2], 37 nM | 3.74 | –
E21 [2], 111.1 nM | 0.731 | –
E21 [2], 333.3 nM | 0.31 | –
E21 [2], 1000 nM | 0.294 | –
E21 [2], 3000 nM | 0.896 | –
E21 [9], 4.1 nM | – | 0.923
E21 [9], 12.3 nM | – | 0.982
E21 [9], 37 nM | – | 0.908
E21 [9], 111.1 nM | – | 0.88
E21 [9], 333.3 nM | – | 0.953
E21 [9], 1000 nM | – | 1.01
E21 [9], 3000 nM | – | 1.1
E28 [5], 4.1 nM | 0.658 | –
E28 [5], 12.3 nM | 0.636 | –
E28 [5], 37 nM | 0.677 | –
E28 [5], 111.1 nM | 0.665 | –
E28 [5], 333.3 nM | 0.613 | –
E28 [5], 1000 nM | 0.514 | –
E28 [5], 3000 nM | 0.875 | –
E28 [12], 4.1 nM | – | 1.07
E28 [12], 12.3 nM | – | 1.11
E28 [12], 37 nM | – | 1.06
E28 [12], 111.1 nM | – | 0.959
E28 [12], 333.3 nM | – | 1.14
E28 [12], 1000 nM | – | 1.05
E28 [12], 3000 nM | – | 1.22
E31 [4], 4.1 nM | 1.22 | –
E31 [4], 12.3 nM | 0.493 | –
E31 [4], 37 nM | 0.804 | –
E31 [4], 111.1 nM | 0.401 | –
E31 [4], 333.3 nM | 0.814 | –
E31 [4], 1000 nM | 0.403 | –
E31 [4], 3000 nM | 0.73 | –
E31 [11], 4.1 nM | – | 0.909
E31 [11], 12.3 nM | – | 0.917
E31 [11], 37 nM | – | 0.897
E31 [11], 111.1 nM | – | 0.921
E31 [11], 333.3 nM | – | 1.21
E31 [11], 1000 nM | – | 0.987
E31 [11], 3000 nM | – | 1.12
E34 [6], 4.1 nM | 1.15 | –
E34 [6], 12.3 nM | 0.672 | –
E34 [6], 37 nM | 0.605 | –
E34 [6], 111.1 nM | 0.603 | –
E34 [6], 333.3 nM | 0.641 | –
E34 [6], 1000 nM | 0.674 | –
E34 [6], 3000 nM | 0.547 | –
E34 [13], 4.1 nM | – | 1.09
E34 [13], 12.3 nM | – | 0.99
E34 [13], 37 nM | – | 1.04
E34 [13], 111.1 nM | – | 0.927
E34 [13], 333.3 nM | – | 1.15
E34 [13], 1000 nM | – | 1.03
E34 [13], 3000 nM | – | 1.11
E57 [1], 4.1 nM | 0.873 | –
E57 [1], 12.3 nM | 0.412 | –
E57 [1], 37 nM | 0.46 | –
E57 [1], 111.1 nM | 0.618 | –
E57 [1], 333.3 nM | 0.603 | –
E57 [1], 1000 nM | 0.198 | –
E57 [1], 3000 nM | 0.693 | –
E57 [8], 4.1 nM | – | 0.965
E57 [8], 12.3 nM | – | 0.992
E57 [8], 37 nM | – | 0.959
E57 [8], 111.1 nM | – | 1.09
E57 [8], 333.3 nM | – | 0.986
E57 [8], 1000 nM | – | 1.01
E57 [8], 3000 nM | – | 1.01
FT3469 [7], 4.1 nM | 1.49 | –
FT3469 [7], 12.3 nM | 0.577 | –
FT3469 [7], 37 nM | 0.829 | –
FT3469 [7], 111.1 nM | 0.485 | –
FT3469 [7], 333.3 nM | 0.522 | –
FT3469 [7], 1000 nM | 0.561 | –
FT3469 [7], 3000 nM | 1.16 | –
FT3469 [14], 4.1 nM | – | 1.01
FT3469 [14], 12.3 nM | – | 0.959
FT3469 [14], 37 nM | – | 1.08
FT3469 [14], 111.1 nM | – | 1.07
FT3469 [14], 333.3 nM | – | 1.19
FT3469 [14], 1000 nM | – | 1.09
FT3469 [14], 3000 nM | – | 1.23
